Laboratory results from paper PMC6301270 (MedChemComm, 2018).

System: T.b. brucei (strain 427) bloodstream form parasites
Test: T.b. brucei single concentration screen (10 μM)
Settings: Trypanosoma brucei, read-out: T.b.brucei % viability (10 µM)

`COc1ccc2nc(C)cc(OCC(=O)NCc3ccccc3)c2c1` [MMV687189, COc1ccc2nc(C)cc(OCC(=O)NCc3ccccc3)c2c1] was tested. Which viability at 10 µM did it give?
The viability at 10 µM was 92%.

For `CC(C)(C(=O)Nc1ccc(F)cc1)n1cc(-c2ccccc2F)cn1` [MMV687239, CC(C)(C(=O)Nc1ccc(F)cc1)n2cc(cn2)c3ccccc3F], which viability at 10 µM is on record?
The viability at 10 µM was 89%.

How did the viability at 10 µM turn out when `NC(=O)c1cc(Br)ccc1OCCOc1ccccc1` [MMV687243, NC(=O)c1cc(Br)ccc1OCCOc2ccccc2] was run?
The viability at 10 µM was 92%.

How did the viability at 10 µM turn out when `CN1CCN(S(=O)(=O)c2ccc(-c3ccc4c(Nc5ccc6nn[nH]c6c5)ccnc4c3)cc2)CC1` [MMV687246, CN1CCN(CC1)S(=O)(=O)c2ccc(cc2)c3ccc4c(Nc5ccc6nn[nH]c6c5)ccnc4c3] was run?
The viability at 10 µM was 106%.

`Cn1c(=O)c2c(S(C)(=O)=O)snc2n(C)c1=O` [MMV687251, CN1C(=O)N(C)c2nsc(c2C1=O)S(=O)(=O)C] was tested. Which viability at 10 µM did it give?
The viability at 10 µM was 98%.

With `CCCCc1ccc(C(=O)Nc2nccc3ccccc23)nc1` [MMV687254, CCCCc1ccc(nc1)C(=O)Nc2nccc3ccccc23] as the molecule, how does the viability at 10 µM read?
Its viability at 10 µM is 81%.

How did the viability at 10 µM turn out when `CCc1nc2ccc(Cl)cn2c1C(=O)NCc1ccc(N2CCC(c3ccc(OC(F)(F)F)cc3)CC2)cc1` [MMV687696, CCc1nc2ccc(Cl)cn2c1C(=O)NCc3ccc(cc3)N4CCC(CC4)c5ccc(OC(F)(F)F)cc5] was run?
The viability at 10 µM was 99%.

`O=C(NCc1cc(Cl)cc(Cl)c1)c1c(C(F)(F)F)nc2ccccn12` [MMV687699, FC(F)(F)c1nc2ccccn2c1C(=O)NCc3cc(Cl)cc(Cl)c3] was tested. Which viability at 10 µM did it give?
The viability at 10 µM was 99%.

How did the viability at 10 µM turn out when `Nc1ncnc2c1ncn2[C@@H]1O[C@H](COS(=O)(=O)NC(=O)c2ccccc2O)[C@@H](O)[C@H]1O` [MMV687700, Nc1ncnc2c1ncn2[C@@H]3O[C@H](COS(=O)(=O)NC(=O)c4ccccc4O)[C@@H](O)[C@H]3O] was run?
The viability at 10 µM was 104%.

With `O=C1O[C@@H](CO)CN1c1cc(F)c(C2=CCN(Cc3ccccc3)CC2)c(F)c1` [MMV687729, OC[C@H]1CN(C(=O)O1)c2cc(F)c(C3=CCN(Cc4ccccc4)CC3)c(F)c2] as the molecule, how does the viability at 10 µM read?
Its viability at 10 µM is 101%.

How did the viability at 10 µM turn out when `CCCCOC(=O)Nc1cc2nc(C3CCCCC3)[nH]c2cc1N1CCCC1` [MMV687730, CCCCOC(=O)Nc1cc2nc([nH]c2cc1N3CCCC3)C4CCCCC4] was run?
The viability at 10 µM was 61%.

With `Cc1cc(OCC(=O)NCc2ccccc2)c2cc(Br)ccc2n1` [MMV687747, Cc1cc(OCC(=O)NCc2ccccc2)c3cc(Br)ccc3n1] as the molecule, how does the viability at 10 µM read?
The viability at 10 µM was 89%.

With `c1ccc(C[C@@H]2CN(c3nccc(Oc4ccc(-n5ccnc5)cc4)n3)CCN2)cc1` [MMV687749, C([C@@H]1CN(CCN1)c2nccc(Oc3ccc(cc3)n4ccnc4)n2)c5ccccc5] as the molecule, how does the viability at 10 µM read?
The viability at 10 µM was 60%.

`CC1(C)OB(O)c2ccc(C3=NOC(c4cc(Cl)c(F)c(Cl)c4)(C(F)(F)F)C3)cc21` (centres unmarked) [MMV687775, CC1(C)OB(O)c2ccc(cc12)C3=NOC(C3)(c4cc(Cl)c(F)c(Cl)c4)C(F)(F)F] was tested. Which viability at 10 µM did it give?
Its viability at 10 µM is 33%.

For `CC1(C)Cc2c(c(N3CCOCC3)nc3snc(Br)c23)CO1` [MMV687794, CC1(C)Cc2c(CO1)c(nc3snc(Br)c23)N4CCOCC4], which viability at 10 µM is on record?
The viability at 10 µM was 50%.

Which viability at 10 µM does the source give for `O=C1O[C@@H](COc2ccon2)CN1c1cc(F)c(C2=CCN(Cc3ccccc3)CC2)c(F)c1` [MMV687813, Fc1cc(cc(F)c1C2=CCN(Cc3ccccc3)CC2)N4C[C@H](COc5ccon5)OC4=O] here?
The viability at 10 µM was 113%.

For `Cc1cccc(-c2nc(Nc3ccncn3)c3sccc3n2)n1` [MMV688122, Cc1cccc(n1)c2nc(Nc3ccncn3)c4sccc4n2], which viability at 10 µM is on record?
The viability at 10 µM was 85%.

For `CCc1ccc(S(=O)(=O)Nc2cc(CN3CCN(CCC(C)C)CC3)ccc2C)cc1` [MMV688124, CCc1ccc(cc1)S(=O)(=O)Nc2cc(CN3CCN(CCC(C)C)CC3)ccc2C], which viability at 10 µM is on record?
The viability at 10 µM was 84%.

With `CCCc1ccc(S(=O)(=O)Nc2ccc(CN3CCN(CC4CC4)CC3)cc2)cc1` [MMV688125, CCCc1ccc(cc1)S(=O)(=O)Nc2ccc(CN3CCN(CC4CC4)CC3)cc2] as the molecule, how does the viability at 10 µM read?
The viability at 10 µM was 72%.

For `c1ccc(Oc2ccc(-c3cncc(-c4ccc5[nH]ccc5c4)n3)cc2)cc1` [MMV688178, O(c1ccccc1)c1ccc(cc1)-c1cncc(n1)-c1ccc2[nH]ccc2c1], which viability at 10 µM is on record?
The viability at 10 µM was 101%.
